We go through 54 compounds from patent publication US20090170838A1, “Bicycloheteroaryl compounds as P2X7 modulators and uses thereof” (Renovis, Inc., priority 2005, published 2009).

The first test addresses T1, P2X7 receptor (Homo sapiens, UniProt Q99572).
T1 construct: host or cells: THP-1 cells differentiated with LPS and IFN-γ
T1 sequence (Q99572 1-595): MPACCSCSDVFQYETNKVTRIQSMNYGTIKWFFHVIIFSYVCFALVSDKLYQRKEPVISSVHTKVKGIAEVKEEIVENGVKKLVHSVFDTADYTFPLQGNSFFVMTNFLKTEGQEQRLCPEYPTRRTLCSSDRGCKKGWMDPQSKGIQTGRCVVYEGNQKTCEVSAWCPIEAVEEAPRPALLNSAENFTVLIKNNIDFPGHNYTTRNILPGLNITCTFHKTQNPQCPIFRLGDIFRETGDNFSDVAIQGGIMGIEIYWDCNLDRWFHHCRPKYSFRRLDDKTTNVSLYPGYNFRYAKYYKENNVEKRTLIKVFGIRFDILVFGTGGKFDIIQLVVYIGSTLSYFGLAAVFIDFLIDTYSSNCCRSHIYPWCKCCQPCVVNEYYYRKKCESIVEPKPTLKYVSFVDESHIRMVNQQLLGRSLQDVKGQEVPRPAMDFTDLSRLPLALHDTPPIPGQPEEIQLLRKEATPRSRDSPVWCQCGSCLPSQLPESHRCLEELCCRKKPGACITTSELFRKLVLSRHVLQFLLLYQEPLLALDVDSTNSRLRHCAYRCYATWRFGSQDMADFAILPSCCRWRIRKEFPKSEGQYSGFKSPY
The experiment in a line: IL-1β release assay (BzATP-stimulated, LPS/IFN-γ differentiated THP-1 cells, ELISA). The test is classed as cell-based. The conditions noted are these: at 0.1 μM (asterisk symbols). Here is the method:
THP-1 cells (ATCC Cat # 285-IF-100) are plated in 96 well plates at a concentration of 200,000 cells per well and allowed to differentiate in RPMI-1640 media (ATCC Cat # 30-2001) containing 10% FBS, 100 IU/mL penicillin, 100 ug/mL streptomycin, 100 ng/mL LPS and 100 ng/mL IFN-γ for 16 hours. Following differentiation, the cells are treated for an additional 2 hours in RPMI-1640 media containing 100 IU/mL penicillin, 100 ug/mL streptomycin and fresh LPS at 100 ng/mL. The cells are then pretreated for 30 minutes with the compound of interest at the appropriate concentration in RPMI media containing 100 IU/mL penicillin, 100 ug/mL streptomycin. Following the pretreatment 2′,3′-O-(4-benzoylbenzoyl)-adenosine 5′-triphosphate (Sigma Aldrich Cat# B6396) is added to a final concentration of 250 uM and the cells incubated for an additional 45 minutes. 30 uL of cell supernatant is then collected and […] levels determined via ELISA (R&D systems Cat. # HSLB50) according to manufacturer's recommendations using the Tecan Safire plate reader. Background adjusted IL-1β levels of drug treated and non-treated cells are used to calculate the percent inhibition.
The compound `CC12CC3CC(C)(C1)CC(CC(=O)Nc1cccc4c(=O)n(Cc5ccc(S(C)(=O)=O)cc5)ccc14)(C3)C2` [Compound 759] showed an inhibition at 0.1 µM of 50 to 75%.

Turning to `CC12CC3CC(C)(C1)CC(CC(=O)Nc1cccc4c(=O)n(Cc5ccc6c(c5)OCO6)ccc14)(C3)C2` [Compound 821], the inhibition at 0.1 µM is at least 75%.

In the case of `CN1CCC(Cn2ccc3c(NC(=O)CC45CC6CC(CC(C6)C4)C5)cccc3c2=O)CC1` [Compound 767], the inhibition at 0.1 µM was at least 75%.

Turning to `CC12CC3CC(C)(C1)CC(CC(=O)Nc1cccc4c1CCN(Cc1ccccn1)C4=O)(C3)C2` [Compound 807], the inhibition at 0.1 µM was 0 to 25%.

For `Cc1cnc(Cn2ccc3c(NC(=O)CC45CC6CC(C)(CC(C)(C6)C4)C5)cccc3c2=O)cn1` [Compound 757], the inhibition at 0.1 µM was at least 75%.

Turning to `CN1CCN(CCCN2CCc3c(NC(=O)CC45CC6CC(CC(C6)C4)C5)cccc3C2=O)CC1` [Compound 878], the inhibition at 0.1 µM was at least 75%.

For `O=C(CC12CC3CC(CC(C3)C1)C2)Nc1cccc2c(=O)n(CCCN3CCOCC3)ccc12` [Compound 781], the inhibition at 0.1 µM was at least 75%.

As to `Cc1cc(CN2CCc3c(NC(=O)CC45CC6CC(CC(C6)C4)C5)cccc3C2=O)no1` [Compound 801], the inhibition at 0.1 µM is at least 75%.

Regarding `CN1CCN(CCN2CCc3c(NC(=O)CC45CC6CC(CC(C6)C4)C5)cccc3C2=O)CC1` [Compound 842], the inhibition at 0.1 µM was at least 75%.

As for `CC12CC3CC(C)(C1)CC(CC(=O)Nc1cccc4c1CCN(Cc1c(F)cccc1F)C4=O)(C3)C2` [Compound 840], the inhibition at 0.1 µM was at least 75%.

`O=C(CC12CC3CC(CC(C3)C1)C2)Nc1cccc2c(=O)n(CCCn3ccnc3)ccc12` [Compound 824] registered an inhibition at 0.1 µM of 50 to 75%.

Take `CC(c1cccnc1)n1ccc2c(NC(=O)CC34CC5CC(CC(C5)C3)C4)cccc2c1=O` (stereo not drawn) [Compound 837]: the inhibition at 0.1 µM is at least 75%.

For `O=C(CC12CC3CC(CC(C3)C1)C2)Nc1cccc2c1CCN(CC1COCCO1)C2=O` (stereo not drawn) [Compound 796], the inhibition at 0.1 µM is at least 75%.

`O=C(CC12CC3CC(CC(C3)C1)C2)Nc1cccc2c1CCN(Cc1c(F)cccc1F)C2=O` [Compound 798] returned an inhibition at 0.1 µM of at least 75%.

For `O=C(CC12CC3CC(CC(C3)C1)C2)Nc1cccc2c1CCN(CC1CCNCC1)C2=O` [Compound 875], the inhibition at 0.1 µM is at least 75%.

Compound `CN(C)CCn1ccc2c(NC(=O)CC34CC5CC(C)(CC(C)(C5)C3)C4)cccc2c1=O` [Compound 763] came in with an inhibition at 0.1 µM of 25 to 50%.

`CC12CC3CC(C)(C1)CC(CC(=O)Nc1cccc4c1CCN(Cc1ccccc1)C4=O)(C3)C2` [Compound 777] gave an inhibition at 0.1 µM of at least 75%.

Regarding `O=C(CC12CC3CC(CC(C3)C1)C2)Nc1cccc2c1CCNC2=O` [Compound 874], the inhibition at 0.1 µM was at least 75%.

The compound `NC(=O)[C@@H](CC1CCCCC1)n1ccc2c(NC(=O)CC34CC5CC(CC(C5)C3)C4)cccc2c1=O` [Compound 881] yielded an inhibition at 0.1 µM of at least 75%.

Take `CC12CC3CC(C)(C1)CC(CC(=O)Nc1cccc4c1CCN(CCCN1CCOCC1)C4=O)(C3)C2` [Compound 822]: the inhibition at 0.1 µM was at least 75%.

`O=C(CC12CC3CC(CC(C3)C1)C2)Nc1cccc2c(=O)n(Cc3nccs3)ccc12` [Compound 885] returned an inhibition at 0.1 µM of at least 75%.

Take `O=C(CC12CC3CC(CC(C3)C1)C2)Nc1cccc2c(=O)n(C[C@H]3CCCN3)ccc12` [Compound 811]: the inhibition at 0.1 µM was at least 75%.

With `CC12CC3CC(C)(C1)CC(CC(=O)Nc1cccc4c1CCN(Cc1ccc(F)cc1F)C4=O)(C3)C2` [Compound 765], the inhibition at 0.1 µM lay in the range of 25 to 50%.

Turning to `CC12CC3CC(C)(C1)CC(CC(=O)Nc1cccc4c(=O)[nH]ccc14)(C3)C2` [Compound 841], the inhibition at 0.1 µM is at least 75%.

`CC(C)Cn1ccc2c(NC(=O)CC34CC5CC(CC(C5)C3)C4)cccc2c1=O` [Compound 871] had an inhibition at 0.1 µM of at least 75%.

As to `CC12CC3CC(C)(C1)CC(CC(=O)Nc1cccc4c(=O)n(Cc5ccc6c(c5)OCCO6)ccc14)(C3)C2` [Compound 803], the inhibition at 0.1 µM was at least 75%.

`CC12CC3CC(C)(C1)CC(CC(=O)Nc1cccc4c(=O)n(Cc5ccco5)ccc14)(C3)C2` [Compound 760] showed an inhibition at 0.1 µM of 25 to 50%.

For the compound `CC(C)(C)OC(=O)N1CCCC1Cn1ccc2c(NC(=O)CC34CC5CC(CC(C5)C3)C4)cccc2c1=O` (stereo not drawn) [Compound 773], the inhibition at 0.1 µM was at least 75%.

`O=C(CC12CC3CC(CC(C3)C1)C2)Nc1cccc2c(=O)n(C(CO)Cc3c[nH]cn3)ccc12` (stereo not drawn) [Compound 883]: the inhibition at 0.1 µM is at least 75%.

`CC12CC3CC(C)(C1)CC(CC(=O)Nc1cccc4c(=O)n(Cc5ccc(F)cc5)ccc14)(C3)C2` [Compound 754] displayed an inhibition at 0.1 µM of at least 75%.

Turning to `CN(C)CCN1CCc2c(NC(=O)CC34CC5CC(CC(C5)C3)C4)cccc2C1=O` [Compound 800], the inhibition at 0.1 µM is 50 to 75%.

In turn, `CC12CC3CC(C)(C1)CC(CC(=O)Nc1cccc4c(=O)n(CCc5ccccn5)ccc14)(C3)C2` [Compound 752] displayed an inhibition at 0.1 µM of 50 to 75%.

In turn, `O=C(CC12CC3CC(CC(C3)C1)C2)Nc1cccc2c(=O)n(Cc3ccc4c(c3)OCO4)ccc12` [Compound 779] yielded an inhibition at 0.1 µM of at least 75%.

`CC12CC3CC(C)(C1)CC(CC(=O)Nc1cccc4c(=O)n(Cc5ccc(F)cc5F)ccc14)(C3)C2` [Compound 764] displayed an inhibition at 0.1 µM of at least 75%.

Take `O=C(CC12CC3CC(CC(C3)C1)C2)Nc1cccc2c(=O)n(CCc3cccnc3)ccc12` [Compound 782]: the inhibition at 0.1 µM was at least 75%.

For `CC12CC3CC(C)(C1)CC(CC(=O)Nc1cccc4c(=O)n(CC5CCOCC5)ccc14)(C3)C2` [Compound 820], the inhibition at 0.1 µM was at least 75%.

`O=C(CC12CC3CC(CC(C3)C1)C2)Nc1cccc2c(=O)n(CC3CCCN3)ccc12` (stereo not drawn) [Compound 809] registered an inhibition at 0.1 µM of at least 75%.

Still in this test, the particulars now being: at 0.3 μM (plus symbols).
Turning to `CC(c1ccccc1)n1ccc2c(NC(=O)CC34CC5CC(C)(CC(C)(C5)C3)C4)cccc2c1=O` (stereo not drawn) [Compound 742], the inhibition at 0.3 µM was at least 75%.

In the case of `CC(CO)n1ccc2c(NC(=O)CC34CC5CC(CC(C5)C3)C4)cccc2c1=O` (stereo not drawn) [Compound 888], the inhibition at 0.3 µM was at least 75%.

On to `Cc1nn(C)c(C)c1Cn1ccc2c(NC(=O)CC34CC5CC(CC(C5)C3)C4)cccc2c1=O` [Compound 718], for which the inhibition at 0.3 µM was at least 75%.

In the case of `O=C(CC12CC3CC(CC(C3)C1)C2)Nc1cccc2c1CCN(Cc1ccco1)C2=O` [Compound 730], the inhibition at 0.3 µM was at least 75%.

Turning to `Cc1cc(Cn2ccc3c(NC(=O)CC45CC6CC(CC(C6)C4)C5)cccc3c2=O)no1` [Compound 737], the inhibition at 0.3 µM was at least 75%.

Take `CC(c1ccccc1)n1ccc2c(NC(=O)CC34CC5CC(CC(C5)C3)C4)cccc2c1=O` (stereo not drawn) [Compound 711]: the inhibition at 0.3 µM is at least 75%.

Turning to `CC(c1ccccc1)N1CCc2c(NC(=O)CC34CC5CC(CC(C5)C3)C4)cccc2C1=O` (stereo not drawn) [Compound 731], the inhibition at 0.3 µM was at least 75%.

For `CCN1CCCC1Cn1ccc2c(NC(=O)CC34CC5CC(CC(C5)C3)C4)cccc2c1=O` (stereo not drawn) [Compound 750], the inhibition at 0.3 µM is at least 75%.

For the compound `O=C(CC12CC3CC(CC(C3)C1)C2)Nc1cccc2c(=O)n(Cc3ccco3)ccc12` [Compound 712], the inhibition at 0.3 µM is at least 75%.

As to `O=C(CC12CC3CC(CC(C3)C1)C2)Nc1cccc2c(=O)n(Cc3ccccn3)ccc12` [Compound 714], the inhibition at 0.3 µM is at least 75%.

In the case of `O=C(CC12CC3CC(CC(C3)C1)C2)Nc1cccc2c1CCN(Cc1cccnc1)C2=O` [Compound 728], the inhibition at 0.3 µM is at least 75%.

As for `C[C@@H](CO)n1ccc2c(NC(=O)CC34CC5CC(CC(C5)C3)C4)cccc2c1=O` [Compound 896], the inhibition at 0.3 µM was at least 75%.

As to `O=C(CC12CC3CC(CC(C3)C1)C2)Nc1cccc2c(=O)n(Cc3ccc(F)c(F)c3)ccc12` [Compound 735], the inhibition at 0.3 µM is at least 75%.

For the compound `O=C(CC12CC3CC(CC(C3)C1)C2)Nc1cccc2c(=O)n(Cc3ccccc3Cl)ccc12` [Compound 708], the inhibition at 0.3 µM was at least 75%.

Turning to `Cc1cnc(CN2CCc3c(NC(=O)CC45CC6CC(CC(C6)C4)C5)cccc3C2=O)cn1` [Compound 732], the inhibition at 0.3 µM was at least 75%.

Consider `CC12CC3CC(C)(C1)CC(CC(=O)Nc1cccc4c(=O)n(CC5CCNCC5)ccc14)(C3)C2` [Compound 890], for which the inhibition at 0.3 µM was at least 75%.

With `CN(C)CCn1ccc2c(NC(=O)CC34CC5CC(CC(C5)C3)C4)cccc2c1=O` [Compound 736], the inhibition at 0.3 µM was at least 75%.

As a reminder, the inhibition is how much of the control response was suppressed.
